# In BindingDB's records for doi:10.1021/jm051134w (Parion Sciences, 2006):
# Target: Amiloride-sensitive sodium channel (Canis familiaris)
# Assay: Inhibition of dog bronchi prototypical epithelial sodium channel by electrophysiological assay
row,Compound,IC50 [nM]
1,"COC(=O)c1ccc(CCCCN=C(N)NC(=O)c2nc(Cl)c(N)nc2N)cc1 [4-{4-[N'-(3,5-diamino-6-chloropyrazine-2-carbonyl)guanidino]-butyl}benzoic acid methyl ester]",22
2,"NC(=NCCCCc1ccc(C(=O)O)cc1)NC(=O)c1nc(Cl)c(N)nc1N [4-{4-[N'-(3,5-diamino-6-chloropyrazine-2-carbonyl)guanidino]-butyl}benzoic acid]",51
3,"NC(=NCCCCc1ccc(OC2O[C@H](C(=O)O)[C@@H](O)[C@H](O)[C@H]2O)cc1)NC(=O)c1nc(Cl)c(N)nc1N (stereo not given in full) [6-(4-{4-[N'-(3,5-diamino-6-chloropyrazine-2-carbonyl)-guanidino]butyl}phenoxy)-3,4,5-trihydroxytetrahydropyran-2-carboxylic acid]",73
4,"NC(=NCCCCc1cccc(OCC(O)CO)c1)NC(=O)c1nc(Cl)c(N)nc1N (stereo not given) [N-(3,5-diamino-6-chloropyrazine-2-carbony)-N'-{4-[3-(2,3-dihydroxypropoxy)-phenyl]butyl}guanidine]",26
5,"NC(=NCCCCCCCCc1ccccc1)NC(=O)c1nc(Cl)c(N)nc1N [N-(3,5-diamino-6-chloropyrazine-2-carbonyl)-N'-(8-phenyloctyl)guanidine]",477
6,"NC(=NCCCOc1ccc(O)cc1)NC(=O)c1nc(Cl)c(N)nc1N [N-(3,5-diamino-6-chloropyrazine-2-carbonyl)-N'-[3-(4-hydroxyphenoxy)propyl]-guanidine]",32
7,"NC(=NCCCc1ccc(O)cc1)NC(=O)c1nc(Cl)c(N)nc1N [N-(3,5-diamino-6-chloropyrazine-2-carbonyl)-N'-[3-(4-hydroxyphenyl)propyl]-guanidine]",88
8,"NC(=NCCCCc1ccc(CO)cc1)NC(=O)c1nc(Cl)c(N)nc1N [N-(3,5-diamino-6-chloropyrazine-2-carbonyl)-N'-[4-(4-hydroxymethylphenyl)-butyl]guanidine]",14
9,"COc1ccc(CCCCCN=C(N)NC(=O)c2nc(Cl)c(N)nc2N)cc1 [N-(3,5-diamino-6-chloropyrazine-2-carbonyl)-N'-[5-(4-methoxyphenyl)pentyl]-guanidine]",77
10,"CCCCCCN=C(N)NC(=O)c1nc(Cl)c(N)nc1N [N-(3,5-diamino-6-chloropyrazine-2-carbonyl)-N'-hexylguanidine]",87
11,"CCCCCCCCN=C(N)NC(=O)c1nc(Cl)c(N)nc1N [N-(3,5-diamino-6-chloropyrazine-2-carbonyl)-N'-octylguanidine]",108
12,"NC(=NCCCCc1ccc(OCCCO)cc1)NC(=O)c1nc(Cl)c(N)nc1N [N-(3,5-diamino-6-chloropyrazine-2-carbonyl)-N'-{4-[4-(3-hydroxypropoxy)phenyl]-butyl}guanidine]",7

# More lines, in order of falling IC50, values ahead:
row,IC50 [nM],Compound
1,124,"COc1ccc(CCCN=C(N)NC(=O)c2nc(Cl)c(N)nc2N)cc1 [N-(3,5-diamino-6-chloropyrazine-2-carbonyl)-N'-[3-(4-methoxyphenyl)propyl]-guanidine]"
2,107,"NC(=NCCO)NC(=O)c1nc(Cl)c(N)nc1N [N-(3,5-diamino-6-chloropyrazine-2-carbonyl)-N'-(2-hydroxyethyl)guanidine]"
3,68,"NC(=NCCCCCc1ccccc1)NC(=O)c1nc(Cl)c(N)nc1N [N-(3,5-diamino-6-chloropyrazine-2-carbonyl)-N'-(5-phenylpentyl)guanidine]"
4,62,"NC(=NCCc1ccc(O)cc1)NC(=O)c1nc(Cl)c(N)nc1N [N-(3,5-diamino-6-chloropyrazine-2-carbonyl)-N'-[2-(4-hydroxyphenyl)ethyl]-guanidine]"
5,41,"COc1ccc(COCCN=C(N)NC(=O)c2nc(Cl)c(N)nc2N)cc1 [N-(3,5-diamino-6-chloropyrazine-2-carbonyl)-N'-[2-(4-methoxybenzyloxy)ethyl]-guanidine]"
6,31,"NC(=NCCCCc1ccccc1OCCO)NC(=O)c1nc(Cl)c(N)nc1N [N-(3,5-diamino-6-chloropyrazine-2-carbonyl)-N'-{4-[2-(2-hydroxyethoxy)phenyl]-butyl}guanidine]"
7,29,"NC(=NCCCCc1ccccc1)NC(=O)c1nc(Cl)c(N)nc1N [N-(3,5-diamino-6-chloropyrazine-2-carbonyl)-N'-(4-phenylbutyl)guanidine]"
8,28,"NC(=NCCCCc1ccccc1OCC(O)CO)NC(=O)c1nc(Cl)c(N)nc1N (stereo not given) [N-(3,5-diamino-6-chloropyrazine-2-carbony)-N'-{4-[2-(2,3-dihydroxypropoxy)-phenyl]butyl}guanidine]"
9,21,"NC(=NCCCCc1ccc(N)cc1)NC(=O)c1nc(Cl)c(N)nc1N [1-(4-(4-aminophenyl)butyl)-3-(3,5-diamino-2-chloropyrazine-6-carbonyl)guanidine]"
10,20,"NC(=NCCCCc1cccc(O)c1)NC(=O)c1nc(Cl)c(N)nc1N [N-(3,5-diamino-6-chloropyrazine-2-carbonyl)-N'-[4-(5-hydroxyphenyl)butyl]-guanidine]"
11,17,"NC(=NCCCCc1cccc(OCCO)c1)NC(=O)c1nc(Cl)c(N)nc1N [N-(3,5-diamino-6-chloropyrazine-2-carbonyl)-N'-{4-[3-(2-hydroxyethoxy)phenyl]-butyl}guanidine]"
12,15,"COc1ccc(CCCCN=C(N)NC(=O)c2nc(Cl)c(N)nc2N)cc1 [N-(3,5-diamino-6-chloropyrazine-2-carbonyl)-N'-[4-(4-methoxyphenyl)butyl]-guanidine]"
13,9,"NC(=NCCCCc1ccc(OCCO)cc1)NC(=O)c1nc(Cl)c(N)nc1N [N-(3,5-diamino-6-chloropyrazine-2-carbonyl)-N'-{4-[4-(2-hydroxyethoxy)phenyl]-butyl}guanidine]"
